Assays:
Conditions in all cases: incubation time: 72 h
BT-474 [1] = test: normalised response (% of control), CellTox Green; higher = less cell death (100 = DMSO, 0 = benzethonium chloride kill control)
Summary of the method: (§1)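 A 20 µl suspension of breast cancer cells was seeded into each well of 384-well plates containing compound at 5 concentrations in 10-fold steps over a compound-specific 10,000-fold range. After 72 h incubation, CellTox Green fluorescence (485/520 nm) was read first, and CellTiter-Glo luminescence was read after 10 min at room temperature. Each plate was normalised against 0.1 % DMSO (100) and a positive kill control (0), and each value is the normalised signal at one concentration.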

BT-549 [2] = test: as above
Summary of the method: as §1

CAL-120 [3] = test: as above
Summary of the method: as §1

CAL-148 [4] = test: as above
Summary of the method: as §1

CAL-51 [5] = test: as above
Summary of the method: as §1

CAL-85-1 [6] = test: as above
Summary of the method: as §1

DU-4475 [7] = test: as above
Summary of the method: as §1

HCC1143 [8] = test: as above
Summary of the method: as §1

HCC1599 [9] = test: as above
Summary of the method: as §1

HCC1937 [10] = test: as above
Summary of the method: as §1

HDQ-P1 [11] = test: as above
Summary of the method: as §1

Hs578T [12] = test: as above
Summary of the method: as §1

MCF-10A [13] = test: as above
Summary of the method: as §1

MDA-MB-231 [14] = test: as above
Summary of the method: as §1

MDA-MB-453 [15] = test: as above
Summary of the method: as §1

MDA-MB-468 [16] = test: as above
Summary of the method: as §1

MFM-223 [17] = test: as above
Summary of the method: as §1

BT-474 [18] = test: normalised response (% of control), CellTiter-Glo; higher = more viable cells (100 = DMSO, 0 = benzethonium chloride kill control)
Summary of the method: as §1

BT-549 [19] = test: as above
Summary of the method: as §1

CAL-120 [20] = test: as above
Summary of the method: as §1

CAL-148 [21] = test: as above
Summary of the method: as §1

CAL-51 [22] = test: as above
Summary of the method: as §1

CAL-85-1 [23] = test: as above
Summary of the method: as §1

DU-4475 [24] = test: as above
Summary of the method: as §1

HCC1143 [25] = test: as above
Summary of the method: as §1

HCC1599 [26] = test: as above
Summary of the method: as §1

HCC1937 [27] = test: as above
Summary of the method: as §1

HDQ-P1 [28] = test: as above
Summary of the method: as §1

Hs578T [29] = test: as above
Summary of the method: as §1

MCF-10A [30] = test: as above
Summary of the method: as §1

MDA-MB-231 [31] = test: as above
Summary of the method: as §1

MDA-MB-436 [32] = test: as above
Summary of the method: as §1

MDA-MB-453 [33] = test: as above
Summary of the method: as §1

MDA-MB-468 [34] = test: as above
Summary of the method: as §1

MFM-223 [35] = test: as above
Summary of the method: as §1

SK-BR-3 = test: as above
Summary of the method: as §1

MDA-MB-436 [36] = test: normalised response (% of control), CellTox Green; higher = less cell death (100 = DMSO, 0 = benzethonium chloride kill control)
Summary of the method: as §1

SMILES | normalised response (BT-474 [1]) [%] | normalised response (BT-549 [2]) [%] | normalised response (CAL-120 [3]) [%] | normalised response (CAL-148 [4]) [%] | normalised response (CAL-51 [5]) [%] | normalised response (CAL-85-1 [6]) [%] | normalised response (DU-4475 [7]) [%] | normalised response (HCC1143 [8]) [%] | normalised response (HCC1599 [9]) [%] | normalised response (HCC1937 [10]) [%] | normalised response (HDQ-P1 [11]) [%] | normalised response (Hs578T [12]) [%] | normalised response (MCF-10A [13]) [%] | normalised response (MDA-MB-231 [14]) [%] | normalised response (MDA-MB-453 [15]) [%] | normalised response (MDA-MB-468 [16]) [%] | normalised response (MFM-223 [17]) [%] | normalised response (BT-474 [18]) [%] | normalised response (BT-549 [19]) [%] | normalised response (CAL-120 [20]) [%] | normalised response (CAL-148 [21]) [%] | normalised response (CAL-51 [22]) [%] | normalised response (CAL-85-1 [23]) [%] | normalised response (DU-4475 [24]) [%] | normalised response (HCC1143 [25]) [%] | normalised response (HCC1599 [26]) [%] | normalised response (HCC1937 [27]) [%] | normalised response (HDQ-P1 [28]) [%] | normalised response (Hs578T [29]) [%] | normalised response (MCF-10A [30]) [%] | normalised response (MDA-MB-231 [31]) [%] | normalised response (MDA-MB-436 [32]) [%] | normalised response (MDA-MB-453 [33]) [%] | normalised response (MDA-MB-468 [34]) [%] | normalised response (MFM-223 [35]) [%] | normalised response (SK-BR-3) [%] | normalised response (MDA-MB-436 [36]) [%]
CN(C)CCN1C(=O)c2cccc3cc(N)cc(c23)C1=O [Amonafide] (1000 nM) | 99.3 | 130 | 98.9 | 93.9 | 106 | 100 | 96.7 | 100 | 102 | 116 | 106 | 113 | 100 | 122 | 106 | 52 | 97.3 | 87.5 | 97.2 | 96.2 | 87.2 | 113 | 93.6 | 87.1 | 97.6 | 106 | 89.9 | 102 | 93.6 | 92.2 | 95.6 | 95.2 | 107 | 91.6 | 101 | 89.5 | –
CCCCCCCCc1ccc(CCC(N)(CO)CO)cc1 [Fingolimod] (1000 nM) | 103 | 131 | 99.4 | 107 | 106 | 101 | 103 | 111 | 106 | – | 89 | 106 | 57.9 | 122 | 103 | 160 | 102 | 94.6 | 99.3 | 96.1 | 101 | 80.5 | 103 | 100 | 101 | 114 | 103 | 103 | 99.9 | 103 | 94.3 | 103 | 102 | 98.1 | 107 | 102 | 90.6
Cc1ccc(NC(=O)c2ccc(CN3CCN(C)CC3)cc2)cc1Nc1nccc(-c2cccnc2)n1 [Imatinib] (1000 nM) | 98.8 | 121 | 106 | 101 | 103 | 110 | 101 | 113 | 104 | – | – | 104 | 101 | 107 | 103 | 137 | 105 | 102 | 106 | 108 | 103 | 96.3 | 104 | 105 | 99.2 | 101 | 93.6 | 101 | 105 | 111 | 106 | 102 | 111 | 99.9 | 104 | 105 | –
c1ccc([C@H]2CN3CCSC3=N2)cc1 [Levamisole] (1000 nM) | 102 | 120 | 100 | 107 | 103 | 107 | 106 | 101 | 104 | 108 | 75.4 | – | 113 | 117 | 96.9 | 68.7 | 102 | 100 | 100 | 101 | 103 | 73.4 | 104 | 99.2 | 109 | 98.4 | 99.6 | 106 | 101 | 109 | 104 | 104 | 105 | 110 | 105 | 113 | 85
Nc1nc(OCc2cc(Br)cs2)c2[nH]cnc2n1 [Lomeguatrib] (1000 nM) | 100 | 108 | 102 | 99.9 | 104 | 98.9 | 101 | 117 | 93.2 | 111 | 112 | 100 | 93.5 | 104 | 103 | 139 | 82.9 | 103 | 96.6 | 96.6 | 99.3 | 103 | 104 | 102 | 101 | 118 | 97.8 | 102 | 102 | 104 | 103 | 97.6 | 105 | 100 | 104 | 103 | –
CN(C)C[C@@H]1CCn2cc(c3ccccc32)C2=C(C(=O)NC2=O)c2cn(c3ccccc23)CCO1 [Ruboxistaurin] (1000 nM) | – | 106 | 98.7 | 55 | 78.1 | 111 | 100 | 109 | 95 | 104 | 98.5 | – | 103 | 97.2 | 95.9 | 122 | 79.2 | 87.3 | 91.1 | 83.7 | 76.6 | 93 | 103 | 80.7 | 90 | 111 | 86 | 85.8 | 104 | 86.1 | 92.6 | 92.2 | 96.1 | 73.8 | 86.8 | 87.7 | 106
Cn1cncc1[C@@](N)(c1ccc(Cl)cc1)c1ccc2c(c1)c(-c1cccc(Cl)c1)cc(=O)n2C [Tipifarnib] (10 nM) | – | – | – | – | – | – | – | – | – | – | – | – | – | – | – | – | – | 94.4 | 98.9 | 93.1 | 96.7 | 121 | 108 | 102 | 101 | 94.3 | 82.3 | 87.7 | 95.8 | 92.3 | 98.6 | 88.7 | 84.6 | 94 | 95.2 | 85.1 | –
O=C1NC(=O)[C@@H](c2cn3c4c(cccc24)CCC3)[C@@H]1c1c[nH]c2ccccc12 [Tivantinib] (0.1 nM) | – | – | – | – | – | – | – | – | – | – | – | – | – | – | – | – | – | 102 | 104 | 101 | 101 | 87.5 | 96.2 | 98.8 | 97.9 | 107 | 95.6 | 101 | 103 | 101 | 97.8 | 106 | 92.5 | 104 | 103 | 108 | –
O=C1NC(=O)[C@@H](c2cn3c4c(cccc24)CCC3)[C@@H]1c1c[nH]c2ccccc12 [Tivantinib] (1 nM) | – | – | – | – | – | – | – | – | – | – | – | – | – | – | – | – | – | 107 | 101 | 100 | 100 | 106 | 96.1 | 98 | 98.9 | 104 | 101 | 98.7 | 101 | 106 | 98.2 | 109 | 106 | 104 | 97.9 | 113 | –
CC[C@]1(O)C[C@H]2CN(CCc3c([nH]c4ccccc34)[C@@](C(=O)OC)(c3cc4c(cc3OC)N(C=O)[C@H]3[C@@](O)(C(=O)OC)[C@H](OC(C)=O)[C@]5(CC)C=CCN6CC[C@]43[C@@H]65)C2)C1 [Vincristine] (0.1 nM) | – | – | – | – | – | – | – | – | – | – | – | – | – | – | – | – | – | 97.8 | 99.5 | 94.7 | 109 | 88.2 | 99.1 | 106 | 103 | 92.7 | 94.1 | 99.9 | 110 | 105 | 104 | 116 | 107 | 112 | 102 | 102 | –

Source: the supplement of paper PMC4862054
